Measurements from ChEMBL document CHEMBL4364246, “Synthesis and biological evaluation of 5-aminoethyl benzophenanthridone derivatives as DNA topoisomerase IB inhibitors” (Eur J Med Chem, 2019).
Calls of active or inactive are those of the source. The rule behind the calls is not given here.

What was measured:
HCT-116 [1] = test: Antitumour activity against human HCT116 cells xenografted in athymic nude nu/nu mouse assessed as inhibition in tumor weight at 10 mg/kg administrated daily by caliper method relative to control; assay type: functional
[2] = target: T1, DNA topoisomerase 1 (Homo sapiens) (UniProt P11387); test: Inhibition of TOP1 in human HCT116 cells assessed as induction of DNA damage by measuring increase in gammaH2AX foci at 1 uM incubated for 3 hrs by DAPI staining based immunofluorescence microscopic method; assay type: cell-based
T1 sequence (whole entry): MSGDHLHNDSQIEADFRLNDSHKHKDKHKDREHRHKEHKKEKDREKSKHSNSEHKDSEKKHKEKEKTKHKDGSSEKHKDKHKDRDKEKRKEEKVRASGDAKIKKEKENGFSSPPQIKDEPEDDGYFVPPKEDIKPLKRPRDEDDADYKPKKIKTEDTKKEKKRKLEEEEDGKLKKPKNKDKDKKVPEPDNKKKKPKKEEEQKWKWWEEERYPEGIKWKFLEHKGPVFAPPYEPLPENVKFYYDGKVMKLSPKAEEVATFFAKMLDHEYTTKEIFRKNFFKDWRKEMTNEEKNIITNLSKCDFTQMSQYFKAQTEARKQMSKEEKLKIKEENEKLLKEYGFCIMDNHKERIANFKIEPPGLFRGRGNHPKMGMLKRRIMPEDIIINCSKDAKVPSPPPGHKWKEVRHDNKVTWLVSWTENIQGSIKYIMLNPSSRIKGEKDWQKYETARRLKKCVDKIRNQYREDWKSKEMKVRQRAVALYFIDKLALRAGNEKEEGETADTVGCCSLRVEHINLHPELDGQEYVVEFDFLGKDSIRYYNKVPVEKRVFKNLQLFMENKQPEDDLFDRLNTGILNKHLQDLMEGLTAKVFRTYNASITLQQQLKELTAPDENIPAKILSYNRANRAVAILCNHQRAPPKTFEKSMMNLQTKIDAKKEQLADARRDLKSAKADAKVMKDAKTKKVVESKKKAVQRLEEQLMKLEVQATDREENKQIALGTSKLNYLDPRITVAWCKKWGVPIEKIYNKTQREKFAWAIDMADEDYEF

[3] = Oral bioavailability in Sprague-Dawley rat at 5 mg/kg measured for 0.083 to 4 hrs by LC-MS/MS analysis; assay type: ADME, organism-based; conditions: in vivo
MCF7 [4] = test: Antitumour activity against human MCF7 cells xenografted in athymic nude nu/nu mouse assessed as inhibition in tumor weight at 10 mg/kg administrated daily by caliper method relative to control; assay type: functional
[5] = target: T1, DNA topoisomerase 1 (Homo sapiens); test: Inhibition of TOP1 in human HCT116 cells assessed as induction of cellular TOP1cc formation at 25 uM incubated for 1 hr by chemiluminescence based assay; assay type: cell-based
HCT-116 [6] = test: Induction of apoptosis in human HCT116 cells assessed as increase in apoptotic cells incubated for 24 hrs by FITC and PI staining based flow cytometric analysis; assay type: functional, cell-based
[7] = Cmax in Sprague-Dawley rat at 5 mg/kg, ig measured for 0.083 to 4 hrs by LC-MS/MS analysis; assay type: ADME, organism-based; parameters: dose 5 mg/kg, route […]; conditions: in vivo, po
[8] = Acute toxicity in Kunming mouse assessed as animal survival at 122.9 mg/kg, ip administrated as single dose measured for 7 days post administration; assay type: organism-based; conditions: in vivo
HCT-116 [9] = test: Induction of apoptosis in human HCT116 cells assessed as viable cells at 1 uM incubated for 24 hrs by FITC and PI staining based flow cytometric analysis (reference value: 99.27%); assay type: functional; conditions: HCT-116, 24 h, read-out: Activity
[10] = AUC (0 to infinity) in Sprague-Dawley rat at 1 mg/kg, iv measured for 0.083 to 4 hrs by LC-MS/MS analysis; assay type: ADME, organism-based; parameters: dose 1 mg/kg, route intravenous, time infinity; conditions: in vivo
[11] = Acute toxicity in Kunming mouse assessed as mortality at 300 mg/kg, ip administrated as single dose measured within 5 days after drug administration; assay type: organism-based; conditions: in vivo, 120 h
MCF7 [12] = test: Antitumour activity against human MCF7 cells xenografted in athymic nude nu/nu mouse assessed as inhibition in tumor weight at 5 mg/kg administrated daily by caliper method relative to control; assay type: functional
[13] = Solubility of the compound in DMSO; assay type: physicochemical
[14] = Acute toxicity in Kunming mouse assessed as mortality at 153.6 to 240 mg/kg, ip administrated as single dose measured for 7 days post drug administration; assay type: organism-based; conditions: in vivo, 168 h
HCT-116 [15] = test: Induction of apoptosis in human HCT116 cells assessed as viable cells at 2 uM incubated for 24 hrs by FITC and PI staining based flow cytometric analysis (reference value: 99.27%); assay type: functional; conditions: HCT-116, 24 h, read-out: Activity
[16] = Growth inhibition of human DU145/RC0.1 cells harboring TOP1 R364H mutant incubated for 72 hrs by MTT assay; assay type: functional; conditions: DU-145, 72 h

CNCCn1c(=O)c2cc(OC)c(OC)cc2c2ccc3cc4c(cc3c21)OCO4
inhibition in vivo at 10 mg/kg (HCT-116 [1]): 64.5%
Activity [2]: Active
F [3]: 20.4%
inhibition in vivo at 10 mg/kg (MCF7 [4]): 56.9%
Activity [5]: Active
Activity (HCT-116 [6]): Dose-dependent effect
Cmax [7]: 19 ng/mL
survival at 168 h [8]: 100%
viability at 1 µM (HCT-116 [9]): 88.1%
AUC(0-inf) [10]: 49.5 ng·h/mL
Activity [11]: Toxic
inhibition in vivo at 5 mg/kg (MCF7 [12]): 44%
solubility [13]: Soluble
Activity [14]: Toxic
viability at 2 µM (HCT-116 [15]): 69.4%
GI50 [16]: 430 nM
